From patent publication US5556744A, “Methods and compositions for diagnosing and treating certain HIV infected patients” (The Trustees of the University of Pennsylvania, priority 1994, dated 1996) come the findings set out here.

For one test, the system named is gp120 peptides. Briefly: Number of gp120 peptides bound by maternal sera (Examples 3, 4). Type of test: binding, HIV-1 IIIB. The settings on record: Table 8. As to the method:
(§1) Radioimmunoassay (RIA) and enzyme-linked immunosorbent assay (ELISA) were performed by standard methodologies [E. Engvall, Meth. Immunol., 70:419-439 (1980); S. K. Pierce et al, J. Exp. Med., 144:1254-1262 (1976)]. Peptides were dissolved in 0.05M carbonate-bicarbonate buffer (pH 9.6) at a concentration of 10 μg/ml. Fifty μl (500 ng) of the peptides were immobilized in 96 well polyvinylchloride plates (Dynatech Laboratories, Inc.) overnight at 4° C. Plates were washed and non-specific sites were blocked with PBS containing 1% BSA overnight at 4° C.
(§2) Dilutions of HIV positive maternal sera were made in blocking buffer at dilutions of 1:50 and 1:500 and incubated in peptide coated plates overnight at 4° C. Plates were washed with PBS and incubated with 75,000 cpm of ^125 I-labelled goat anti-human IgG. The antibody was iodinated by a chloramine T method [W. V. Williams et al, Proc. Natl. Acad. Sci. USA, 85:6488-6492 (1988)]. Plates were washed, dried and counted in a gamma counter to measure specific binding. Normal human serum (i.e., HIV seronegative) was used as a control.
(§3) Alternatively, ELISA assays were performed in polystyrene plates (Dynatech Laboratories, Inc) in which 0.05% Tween 20 (Sigma Chemical Co.) was included in the washing, blocking and dilution buffers. The secondary antibody used was goat […] Ig conjugated to horseradish peroxidase (HRP) (Sigma Chemical Co). The substrate used for color development was 3,3',5,5' tetramethyl-benzidine dihydrochloride (TMB) (Sigma Chemical Co). Absorbance of samples was measured in a Dynatech MR5000 (Dynatech Laboratories, Inc.) plate reader and expressed as an optical density at wavelength of 450 nm (OD450).
(§4) The results of the binding assays are represented in Tables 3, 4, 6 and 7. The following key is used for the designation of specific binding of the maternal sera samples to the peptides: The minus sign, -, is equivalent to the specific OD450 or cpm of sera sample binding to peptide divided by the specific OD450 or cpm of NHS sample binding to peptide, which value is less than 2. The plus sign, +, is equivalent to the specific OD450 or cpm of sera sample binding to peptide divided by the specific OD450 or cpm of NHS sample binding to peptide, which value is between 2 to 3. The double plus sign, ++, is equivalent to the specific OD450 or cpm of sera sample binding to peptide divided by the specific OD450 or cpm of NHS sample binding to peptide, which value is greater than 3.
(§5) Comparisons of number of peptides which bound maternal serum samples were made between the transmission group and the nontransmission group. The data was analyzed using the unpaired student's test. For the determination of differences in the binding of specific peptides between transmission and non-transmission groups, the Spearman's rank-order correlation test was performed.

Another test deals with HIV-IIIB viral isolate. Briefly: Neutralization assay (HIV-IIIB, Hut-78 cells, p24 antigen ELISA). The following applies: HIV-IIIB, Hut-78 cells, p24 OD450 after 6 days; vs normal human serum. Set-up: key to Neutralization Activity, Dilution Resulting in ≥50% Inhibition: --: (-) indicates negative (i.e. a dilution of <1:10). Type of test: cell-based, HIV-1 IIIB. The method, then: (§6) The H9 cell line (a cutaneous T lymphoma line) infected by HIV-IIIB [ATCC CRL 8543] was used in the neutralization assay. The H9 cell line infected by HIV-MN was used in the anti-syncytial assays. SupT1 and Hut78 cells were used as the target cell lines for the anti-syncytial and neutralization assays. All cell lines were obtained from the National Institutes of Health AIDS Repository (Bethesda, Md.).
In a neutralization assay, 20 μl of maternal sera samples was placed in 96 round bottom well plates at final dilutions of 1:10, 1:90 and 1:810 in RPMI. The HIV-IIIB viral isolate was diluted in RPMI to a TCID50 of 100 units/ml. Twenty μl of the virus solution was placed in each well and the plate was incubated for one hour at 4° C. Hut-78 cells were incubated with 2 μg/ml of polybrene for one hour at 37° C. in a CO2 incubator. The HUT-78 cells were washed and resuspended in fresh RPMI to a final concentration of 4×10^6 cells/ml. Ten μl of the cell suspension was added to each well and the plate was incubated for one hour in a 37° C., CO2 incubator.
Fifteen μl of the serum/cell/virus solution was aliquoted to a new plate containing 200 μl of fresh RPMI and incubated for 6 days. After 6 days, 100 μl was used to analyze for p24 antigen. The p24 capture ELISA assay kit (Coulter Corporation, Hialeah, Fla.) was used to perform the measurements.
Further, sera samples at the same dilutions as described above were tested for residual p24 core protein or antibody to insure the results were due only to viral infection.
For orientation: In an ELISA, binding on a coated surface is turned into a signal by an enzyme label.

Another test has as its system gp41 peptides. The test is described as follows: Number of gp41 peptides bound by maternal sera (Examples 3, 4). Type of test: binding, HIV-1 IIIB. The settings on record: Table 8. As to the method: as §1, §2, §3, §4, §5
Test [1] concerns HIV-1 infected cells (MN isolate). The test is described as follows: Anti-syncytial assay (inhibition of HIV-1 MN syncytium formation, SupT1 target cells). The following applies: HIV-1 MN, SupT1 cells, 3 days; vs normal human serum. Type of test: cell-based.
Text: as §6
To analyze the effect of the maternal serum samples on HIV-1 fusion, SupT1 cells were used as target cells in an anti-syncytial assay. Dilutions of the different maternal serum samples were made in 96 well plates in RPMI 1640 media containing 10% fetal calf serum at final dilutions of 1:4, 1:8, 1:16, 1:32, 1:64, 1:128, 1:256 or 1:512. HIV-1 infected cells (MN isolate) were then plated in the wells at a density of approximately 10^4 cells per well. SupT1 target cells were then added at 5×10^5 /well and the number of syncytia are determined after 3 days of incubation. Inhibition of syncytium formation by a serum sample was considered significant if the dilution which yielded a 50% reduction in the number of syncytia when compared to control was greater than 1:32. The average number of syncytia in the control (normal human serum) wells at the above dilutions were: 45.5, 48.5, 44, 48, 48.5, 41.5, 42 and 45.5 respectively.

On to “17: gp120 peptide, amino acids 267-282, SEQ ID NO:111 (EEEVVIRSVNFTDNAK) [Peptide 17]”, for which, in the test with gp120 peptides, the “Number of gp120 Peptides Bound (+/++)” value stood at 5. Also, the “Neutralization Activity, Dilution Resulting in ≥50% Inhibition” value with HIV-IIIB viral isolate is given as 1:810. The “Number of gp41 Peptides Bound (+ or ++)” value in the test with gp41 peptides was determined as 4. The “Anti-Syncytial Activity, Dilution Resulting in ≥50% Inhibition” value in test [1] is 1:256.
Turning to “HP1: gp120 peptide, amino acids 93-107, SEQ ID NO:99 (FNMWKNDMVEQMHED)”, the “Number of gp120 Peptides Bound (+/++)” value in the test with gp120 peptides is listed as 6. Further, the “Neutralization Activity, Dilution Resulting in ≥50% Inhibition” value in the test on HIV-IIIB viral isolate is “--”. Further, the “Number of gp41 Peptides Bound (+ or ++)” value in the test with gp41 peptides was 6. Moreover, in test [1], the “Anti-Syncytial Activity, Dilution Resulting in ≥50% Inhibition” value is 1:64.
In the case of “HP2: gp120 peptide, amino acids 98-112, SEQ ID NO:100 (NDMVEQMHEDIISLW)”, the “Number of gp120 Peptides Bound (+/++)” value in the test with gp120 peptides was determined as 4. In the test with HIV-IIIB viral isolate, the “Neutralization Activity, Dilution Resulting in ≥50% Inhibition” value is recorded as “--”. Besides, the “Number of gp41 Peptides Bound (+ or ++)” value in the test with gp41 peptides worked out at 2. For the same substance, the “Anti-Syncytial Activity, Dilution Resulting in ≥50% Inhibition” value in test [1] is recorded as 1:32.
Turning to “HP3: gp120 peptide, amino acids 102-116, SEQ ID NO:101 (EQMHEDIISLWDQSL)”, in the test with gp120 peptides, the “Number of gp120 Peptides Bound (+/++)” value turned out to be 4. The “Neutralization Activity, Dilution Resulting in ≥50% Inhibition” value in the test with HIV-IIIB viral isolate was 1:90. Moreover, the “Number of gp41 Peptides Bound (+ or ++)” value in the test with gp41 peptides worked out at 2. Further, in test [1], the “Anti-Syncytial Activity, Dilution Resulting in ≥50% Inhibition” value is listed as 1:256.
In the same order, the values of “HP5: gp120 peptide, amino acids 105-117, SEQ ID NO:102” are 4, “--”, 0 and 1:128.
The like results for “HP7: gp120 peptide, amino acids 107-121, SEQ ID NO:103 (DIISLWDQSLKPCVK)” were, in that order, 3, 1:810, 3 and 1:64.
Turning to “HP9: gp120 peptide, amino acids 141-155, SEQ ID NO:104 (NSSSGRMIMEKGEIK)”, the “Number of gp120 Peptides Bound (+/++)” value in the test on gp120 peptides is given as 3. Besides, in the test on HIV-IIIB viral isolate, the “Neutralization Activity, Dilution Resulting in ≥50% Inhibition” value is listed as 1:810. Further, the “Number of gp41 Peptides Bound (+ or ++)” value in the test with gp41 peptides is given as 1. Moreover, the “Anti-Syncytial Activity, Dilution Resulting in ≥50% Inhibition” value in test [1] was 1:256.
In the same order, the values of “HP10: gp120 peptide, amino acids 157-171, SEQ ID NO:105 (CSFNISTSIRGKVQK)” are 2, “--”, 0 and 1:256.
